One block for each compound: values may come before it.
System: 885512-296-R-J2-PDC complex spheroid growth, % test/control
Experiment: Anticancer human tumor 885512-296-R-J2-PDC patient-derived breast carcinoma cell line growth inhibition [Asc]
Conditions: for IC50: curve of first compound; for viability, T/C: stronger effect = lower value
How it was run: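 Tumor cells were grown as multicellular spheroids with stromal HUVEC and mesenchymal stem cells and treated singly or in combination. Concentrations fell in half-log steps from the clinical Cmax, or from 10 microM where none was known.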

[1] = second compound 0.1 µM, first compound 0.00316 µM
[2] = second compound 0.1 µM, first compound 0.01 µM
[3] = second compound 0.1 µM, first compound 0.0316 µM
[4] = second compound 0.1 µM, first compound 0.1 µM
[5] = second compound 0.316 µM, first compound 0.00316 µM
[6] = second compound 0.316 µM, first compound 0.01 µM
[7] = second compound 0.316 µM, first compound 0.0316 µM
[8] = second compound 0.316 µM, first compound 0.1 µM
[9] = second compound 1 µM, first compound 0.00316 µM
[10] = second compound 1 µM, first compound 0.01 µM
[11] = second compound 1 µM, first compound 0.0316 µM
[12] = second compound 1 µM, first compound 0.1 µM
[13] = second compound 3.16 µM, first compound 0.00316 µM
[14] = second compound 3.16 µM, first compound 0.01 µM
[15] = second compound 3.16 µM, first compound 0.0316 µM
[16] = second compound 3.16 µM, first compound 0.1 µM
[17] = second compound 10 µM, first compound 0.00316 µM
[18] = second compound 10 µM, first compound 0.01 µM
[19] = second compound 10 µM, first compound 0.0316 µM
[20] = second compound 10 µM, first compound 0.1 µM
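Also: spheroids exposed to compounds for seven days.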
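For viability, T/C in this document: 100% = DMSO vehicle control wells.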

IC50 (second compound 0.1 µM): 40.1 nM
IC50 (second compound 0.316 µM): 38.9 nM
IC50 (second compound 1 µM): 39.1 nM
IC50 (second compound 3.16 µM): 41.3 nM
IC50 (second compound 10 µM): 46.1 nM
Structure (SMILES): NC(=O)C(=Cn1cnc(-c2cc(C(F)(F)F)cc(C(F)(F)F)c2)n1)c1cncnc1 + Cc1c(S(C)(=O)=O)c(-c2cc(F)cc(N3CCN(c4ccc(NS(=O)(=O)c5ccc(NC(CCN6CCC(C(=O)OCCCP(=O)(O)O)CC6)CSc6ccccc6)c(S(=O)(=O)C(F)(F)F)c5)cc4)CC3)c2)c(-c2ccc(Cl)cc2)n1C(C)C
viability, T/C (second compound 0.1 µM, first compound 0.000949 µM): 92.8%
viability, T/C (second compound 0.1 µM, first compound 0.003 µM): 74.5%
viability, T/C (second compound 0.1 µM, first compound 0.00949 µM): 81.9%
viability, T/C (second compound 0.1 µM, first compound 0.03 µM): 65.5%
viability, T/C (second compound 0.1 µM, first compound 0.0949 µM): 4.49%
viability, T/C (second compound 0.1 µM, first compound 0.3 µM): 0.26%
viability, T/C (second compound 0.316 µM, first compound 0.000949 µM): 75.8%
viability, T/C (second compound 0.316 µM, first compound 0.003 µM): 102%
viability, T/C (second compound 0.316 µM, first compound 0.00949 µM): 83%
viability, T/C (second compound 0.316 µM, first compound 0.03 µM): 63.3%
viability, T/C (second compound 0.316 µM, first compound 0.0949 µM): 4.42%
viability, T/C (second compound 0.316 µM, first compound 0.3 µM): 3.46%
viability, T/C (second compound 1 µM, first compound 0.000949 µM): 68.8%
viability, T/C (second compound 1 µM, first compound 0.003 µM): 89.2%
viability, T/C (second compound 1 µM, first compound 0.00949 µM): 102%
viability, T/C (second compound 1 µM, first compound 0.03 µM): 64.4%
viability, T/C (second compound 1 µM, first compound 0.0949 µM): 3.77%
viability, T/C (second compound 1 µM, first compound 0.3 µM): 0.23%
viability, T/C (second compound 3.16 µM, first compound 0.000949 µM): 92.9%
viability, T/C (second compound 3.16 µM, first compound 0.003 µM): 88.1%
viability, T/C (second compound 3.16 µM, first compound 0.00949 µM): 105%
viability, T/C (second compound 3.16 µM, first compound 0.03 µM): 67.9%
viability, T/C (second compound 3.16 µM, first compound 0.0949 µM): 4.78%
viability, T/C (second compound 3.16 µM, first compound 0.3 µM): 0.2%
viability, T/C (second compound 10 µM, first compound 0.000949 µM): 117%
viability, T/C (second compound 10 µM, first compound 0.003 µM): 105%
viability, T/C (second compound 10 µM, first compound 0.00949 µM): 89.7%
viability, T/C (second compound 10 µM, first compound 0.03 µM): 78%
viability, T/C (second compound 10 µM, first compound 0.0949 µM): 2.71%
viability, T/C (second compound 10 µM, first compound 0.3 µM): 0.25%

IC50 (second compound 0.1 µM): > 100 nM
IC50 (second compound 0.316 µM): > 100 nM
IC50 (second compound 1 µM): > 100 nM
IC50 (second compound 3.16 µM): > 100 nM
IC50 (second compound 10 µM): > 100 nM
Structure (SMILES): NC1CCC(NC2CC2c2ccccc2)CC1 (stereo not given) + Cc1c(S(C)(=O)=O)c(-c2cc(F)cc(N3CCN(c4ccc(NS(=O)(=O)c5ccc(NC(CCN6CCC(C(=O)OCCCP(=O)(O)O)CC6)CSc6ccccc6)c(S(=O)(=O)C(F)(F)F)c5)cc4)CC3)c2)c(-c2ccc(Cl)cc2)n1C(C)C
viability, T/C (second compound 0.1 µM, first compound 0.000316 µM): 124%
viability, T/C (second compound 0.1 µM, first compound 0.001 µM): 127%
viability, T/C [1]: 122%
viability, T/C [2]: 123%
viability, T/C [3]: 123%
viability, T/C [4]: 113%
viability, T/C (second compound 0.316 µM, first compound 0.000316 µM): 121%
viability, T/C (second compound 0.316 µM, first compound 0.001 µM): 126%
viability, T/C [5]: 118%
viability, T/C [6]: 108%
viability, T/C [7]: 127%
viability, T/C [8]: 122%
viability, T/C (second compound 1 µM, first compound 0.000316 µM): 109%
viability, T/C (second compound 1 µM, first compound 0.001 µM): 115%
viability, T/C [9]: 122%
viability, T/C [10]: 116%
viability, T/C [11]: 123%
viability, T/C [12]: 121%
viability, T/C (second compound 3.16 µM, first compound 0.000316 µM): 112%
viability, T/C (second compound 3.16 µM, first compound 0.001 µM): 116%
viability, T/C [13]: 116%
viability, T/C [14]: 111%
viability, T/C [15]: 113%
viability, T/C [16]: 120%
viability, T/C (second compound 10 µM, first compound 0.000316 µM): 122%
viability, T/C (second compound 10 µM, first compound 0.001 µM): 104%
viability, T/C [17]: 99.5%
viability, T/C [18]: 121%
viability, T/C [19]: 111%
viability, T/C [20]: 118%

IC50 (second compound 0.1 µM): 121 nM
IC50 (second compound 0.316 µM): 94.1 nM
IC50 (second compound 1 µM): 89 nM
IC50 (second compound 3.16 µM): 77.9 nM
IC50 (second compound 10 µM): 452 nM
Structure (SMILES): O=C(c1ccc(F)c(F)c1Nc1ccc(I)cc1F)N1CC(O)([C@@H]2CCCCN2)C1 + Cc1c(S(C)(=O)=O)c(-c2cc(F)cc(N3CCN(c4ccc(NS(=O)(=O)c5ccc(NC(CCN6CCC(C(=O)OCCCP(=O)(O)O)CC6)CSc6ccccc6)c(S(=O)(=O)C(F)(F)F)c5)cc4)CC3)c2)c(-c2ccc(Cl)cc2)n1C(C)C
viability, T/C [1]: 77.6%
viability, T/C [2]: 82.5%
viability, T/C [3]: 69.9%
viability, T/C [4]: 50.8%
viability, T/C (second compound 0.1 µM, first compound 0.316 µM): 34%
viability, T/C (second compound 0.1 µM, first compound 1 µM): 13.1%
viability, T/C [5]: 94%
viability, T/C [6]: 88.8%
viability, T/C [7]: 63.6%
viability, T/C [8]: 51.9%
viability, T/C (second compound 0.316 µM, first compound 0.316 µM): 28.7%
viability, T/C (second compound 0.316 µM, first compound 1 µM): 13.7%
viability, T/C [9]: 86.9%
viability, T/C [10]: 68.7%
viability, T/C [11]: 68.1%
viability, T/C [12]: 48.4%
viability, T/C (second compound 1 µM, first compound 0.316 µM): 30.2%
viability, T/C (second compound 1 µM, first compound 1 µM): 12.2%
viability, T/C [13]: 102%
viability, T/C [14]: 86.8%
viability, T/C [15]: 55.1%
viability, T/C [16]: 51.5%
viability, T/C (second compound 3.16 µM, first compound 0.316 µM): 30.4%
viability, T/C (second compound 3.16 µM, first compound 1 µM): 11.2%
viability, T/C [17]: 111%
viability, T/C [18]: 109%
viability, T/C [19]: 99.2%
viability, T/C [20]: 96.1%
viability, T/C (second compound 10 µM, first compound 0.316 µM): 64.2%
viability, T/C (second compound 10 µM, first compound 1 µM): 16.4%

From PubChem BioAssay AID1963447 (Molecular Pharmacology Branch, DTP, NCI, 2024)
